Drawing on ChEMBL document CHEMBL1909046, “DrugMatrix in vitro pharmacology data”, this text covers IC50 and Ki for six compounds.

Sequence of Vascular endothelial growth factor receptor 1 (P17948 whole entry): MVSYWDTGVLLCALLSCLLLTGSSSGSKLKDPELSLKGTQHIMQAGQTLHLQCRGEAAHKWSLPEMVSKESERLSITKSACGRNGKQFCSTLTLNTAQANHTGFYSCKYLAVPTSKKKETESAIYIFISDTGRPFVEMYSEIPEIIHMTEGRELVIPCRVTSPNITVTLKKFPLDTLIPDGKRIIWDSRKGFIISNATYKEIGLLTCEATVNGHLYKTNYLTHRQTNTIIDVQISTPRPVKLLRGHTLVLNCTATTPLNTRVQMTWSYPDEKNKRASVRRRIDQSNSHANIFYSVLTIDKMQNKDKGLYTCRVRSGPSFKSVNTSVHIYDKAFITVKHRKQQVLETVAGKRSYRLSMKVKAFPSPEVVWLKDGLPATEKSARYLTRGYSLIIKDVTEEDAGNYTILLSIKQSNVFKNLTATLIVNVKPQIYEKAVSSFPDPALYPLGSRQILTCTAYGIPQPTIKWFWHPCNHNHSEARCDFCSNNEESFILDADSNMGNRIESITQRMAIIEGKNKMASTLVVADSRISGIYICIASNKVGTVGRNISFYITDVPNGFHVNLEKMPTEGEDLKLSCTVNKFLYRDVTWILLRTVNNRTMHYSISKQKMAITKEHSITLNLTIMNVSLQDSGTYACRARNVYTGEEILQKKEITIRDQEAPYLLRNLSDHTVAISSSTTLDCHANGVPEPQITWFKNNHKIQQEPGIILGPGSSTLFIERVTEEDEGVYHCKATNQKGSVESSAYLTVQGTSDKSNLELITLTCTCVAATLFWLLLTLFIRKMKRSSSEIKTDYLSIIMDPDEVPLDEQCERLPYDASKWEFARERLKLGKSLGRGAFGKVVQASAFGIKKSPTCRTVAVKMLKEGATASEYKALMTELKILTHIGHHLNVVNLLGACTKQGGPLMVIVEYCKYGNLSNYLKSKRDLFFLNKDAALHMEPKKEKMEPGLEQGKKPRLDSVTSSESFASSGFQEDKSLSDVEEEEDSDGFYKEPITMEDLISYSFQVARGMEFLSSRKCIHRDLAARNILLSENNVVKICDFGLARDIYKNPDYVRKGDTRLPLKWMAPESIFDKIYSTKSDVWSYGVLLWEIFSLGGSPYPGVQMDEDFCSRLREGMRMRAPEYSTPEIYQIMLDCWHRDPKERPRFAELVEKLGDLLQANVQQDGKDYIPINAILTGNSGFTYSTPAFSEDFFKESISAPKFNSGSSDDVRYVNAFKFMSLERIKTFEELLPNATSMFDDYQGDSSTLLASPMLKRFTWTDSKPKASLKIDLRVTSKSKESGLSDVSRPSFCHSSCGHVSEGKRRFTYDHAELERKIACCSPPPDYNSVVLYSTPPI

The first test has as its target Vascular endothelial growth factor receptor 1 (Homo sapiens, UniProt P17948). Briefly: biochemical. In kind it is cell-based, HUVEC. To be noted: huvec. Note: in other assays of this panel Not Active means under 50% inhibition at 10 µM.
As to `C[C@@H]1O[C@@H](O[C@@H]2C=C3CC[C@@H]4[C@H](CC[C@]5(C)[C@@H](c6ccc(=O)oc6)CC[C@]45O)[C@@]3(C)CC2)[C@H](O)[C@H](O)[C@H]1O` [PROSCILLARIDIN], the IC50 entry is listed as “Not Active”.
With `Oc1cccc(O)c1O` [PYROGALLOL], the IC50 entry was “Not Active”.
AURANOFIN: the IC50 result was “Not Active” and the Ki entry is “Not Active”.
For the compound GADOPENTETATE DIMEGLUMINE, the IC50 result was “Not Active” and the Ki result is “Not Active”.
In the case of GENTAMICIN, the IC50 entry is reported as “Not Active” and the Ki result is given as “Not Active”.
Regarding GRAMICIDIN, the IC50 entry is recorded as “Not Active” and the Ki entry is reported as “Not Active”.

Another test addresses T1, Angiotensin-converting enzyme (Oryctolagus cuniculus, UniProt P12822).
T1 sequence (P12822 whole entry): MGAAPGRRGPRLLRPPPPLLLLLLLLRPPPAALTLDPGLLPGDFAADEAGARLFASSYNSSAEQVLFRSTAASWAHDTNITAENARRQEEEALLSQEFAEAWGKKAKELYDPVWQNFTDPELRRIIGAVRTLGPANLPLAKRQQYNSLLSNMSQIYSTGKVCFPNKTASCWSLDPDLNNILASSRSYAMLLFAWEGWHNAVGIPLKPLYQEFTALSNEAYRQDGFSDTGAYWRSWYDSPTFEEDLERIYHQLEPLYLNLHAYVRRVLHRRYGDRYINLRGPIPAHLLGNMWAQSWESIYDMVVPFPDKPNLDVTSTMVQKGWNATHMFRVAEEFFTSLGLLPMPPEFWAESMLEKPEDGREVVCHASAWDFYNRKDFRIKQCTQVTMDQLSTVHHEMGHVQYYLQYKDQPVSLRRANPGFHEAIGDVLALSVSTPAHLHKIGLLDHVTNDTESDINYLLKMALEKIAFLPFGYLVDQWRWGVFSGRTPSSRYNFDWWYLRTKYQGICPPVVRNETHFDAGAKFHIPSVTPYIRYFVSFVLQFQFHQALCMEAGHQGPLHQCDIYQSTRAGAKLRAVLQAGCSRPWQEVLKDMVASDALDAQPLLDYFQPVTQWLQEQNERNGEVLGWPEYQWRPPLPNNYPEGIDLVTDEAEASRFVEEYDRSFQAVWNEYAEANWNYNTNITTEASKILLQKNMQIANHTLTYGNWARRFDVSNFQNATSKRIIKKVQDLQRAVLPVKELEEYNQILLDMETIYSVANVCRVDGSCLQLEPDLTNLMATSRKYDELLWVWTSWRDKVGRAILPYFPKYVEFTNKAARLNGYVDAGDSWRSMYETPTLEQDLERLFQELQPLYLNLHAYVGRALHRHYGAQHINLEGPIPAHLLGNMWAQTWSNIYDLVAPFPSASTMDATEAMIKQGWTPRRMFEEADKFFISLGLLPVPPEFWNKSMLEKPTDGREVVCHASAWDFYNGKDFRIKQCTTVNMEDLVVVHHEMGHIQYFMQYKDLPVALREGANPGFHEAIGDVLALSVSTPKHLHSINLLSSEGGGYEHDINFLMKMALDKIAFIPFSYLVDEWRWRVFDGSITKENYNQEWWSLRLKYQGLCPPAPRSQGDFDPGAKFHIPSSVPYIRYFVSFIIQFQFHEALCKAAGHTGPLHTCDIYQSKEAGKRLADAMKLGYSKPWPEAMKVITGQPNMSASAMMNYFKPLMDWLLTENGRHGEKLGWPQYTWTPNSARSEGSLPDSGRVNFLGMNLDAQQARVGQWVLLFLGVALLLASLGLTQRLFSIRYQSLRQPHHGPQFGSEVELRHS
Experiment: not given
The test is classed as tissue-based, Lung.
Conditions: not given
For the compound `C[C@@H]1O[C@@H](O[C@@H]2C=C3CC[C@@H]4[C@H](CC[C@]5(C)[C@@H](c6ccc(=O)oc6)CC[C@]45O)[C@@]3(C)CC2)[C@H](O)[C@H](O)[C@H]1O` [PROSCILLARIDIN], the IC50 entry was “Not Active”.
Still for that read-out and setting: the result for `Oc1cccc(O)c1O` [PYROGALLOL] reads “Not Active”.
Turning to AURANOFIN, the IC50 result was “Not Active” and the Ki entry was “Not Active”.
As to GADOPENTETATE DIMEGLUMINE, the IC50 result is given as “Not Active” and the Ki entry is reported as “Not Active”.
Regarding GENTAMICIN, the IC50 result was “Not Active” and the Ki result is “Not Active”.
Turning to GRAMICIDIN, the IC50 result is on record as “Not Active” and the Ki result is given as “Not Active”.

System in the next test: not listed separately
Nature of the test: DRUGMATRIX: Serotonin (5-Hydroxytryptamine) 5-HT3 radioligand binding (ligand: [3H] GR-65630). To be noted: hek293; Not Active = under 50% inhibition at 10 µM. The test is classed as cell membranes, Membrane.
Consider `C[C@@H]1O[C@@H](O[C@@H]2C=C3CC[C@@H]4[C@H](CC[C@]5(C)[C@@H](c6ccc(=O)oc6)CC[C@]45O)[C@@]3(C)CC2)[C@H](O)[C@H](O)[C@H]1O` [PROSCILLARIDIN], for which the IC50 entry was “Not Active” and the Ki entry is “Not Active”.
`Oc1cccc(O)c1O` [PYROGALLOL]: the IC50 result was “Not Active” and the Ki result is recorded as “Not Active”.
In the case of AURANOFIN, the IC50 entry is “Not Active” and the Ki result was “Not Active”.
For GADOPENTETATE DIMEGLUMINE, the IC50 entry is “Not Active” and the Ki entry was “Not Active”.
Consider GENTAMICIN, for which the IC50 result was “Not Active” and the Ki entry is “Not Active”.
Regarding GRAMICIDIN, the IC50 result is reported as “Not Active” and the Ki entry is listed as “Not Active”.

System in another test: not listed separately
Nature of the test: DRUGMATRIX: Phosphodiesterase PDE3 enzyme inhibition (substrate: [3H]cAMP + cAMP). The test is classed as tissue-based, Homo sapiens. The settings on record: platelet; Not Active = under 50% inhibition at 10 µM.
Take `C[C@@H]1O[C@@H](O[C@@H]2C=C3CC[C@@H]4[C@H](CC[C@]5(C)[C@@H](c6ccc(=O)oc6)CC[C@]45O)[C@@]3(C)CC2)[C@H](O)[C@H](O)[C@H]1O` [PROSCILLARIDIN]: the IC50 result is listed as “Not Active” and the Ki result is on record as “Not Active”.
As for `Oc1cccc(O)c1O` [PYROGALLOL], the IC50 entry was “Not Active” and the Ki entry is reported as “Not Active”.
In the case of AURANOFIN, the IC50 entry was “Not Active” and the Ki entry is on record as “Not Active”.
For GADOPENTETATE DIMEGLUMINE, the IC50 entry is given as “Not Active” and the Ki result is “Not Active”.
As for GENTAMICIN, the IC50 entry was “Not Active” and the Ki entry is recorded as “Not Active”.
Take GRAMICIDIN: the IC50 entry is reported as “Not Active” and the Ki result is “Not Active”.

The target in the next test is T2, C-X-C chemokine receptor type 1 (Homo sapiens, UniProt P25024). Note: in other assays of this panel Not Active means under 50% inhibition at 10 µM.
T2 sequence (P25024 whole entry): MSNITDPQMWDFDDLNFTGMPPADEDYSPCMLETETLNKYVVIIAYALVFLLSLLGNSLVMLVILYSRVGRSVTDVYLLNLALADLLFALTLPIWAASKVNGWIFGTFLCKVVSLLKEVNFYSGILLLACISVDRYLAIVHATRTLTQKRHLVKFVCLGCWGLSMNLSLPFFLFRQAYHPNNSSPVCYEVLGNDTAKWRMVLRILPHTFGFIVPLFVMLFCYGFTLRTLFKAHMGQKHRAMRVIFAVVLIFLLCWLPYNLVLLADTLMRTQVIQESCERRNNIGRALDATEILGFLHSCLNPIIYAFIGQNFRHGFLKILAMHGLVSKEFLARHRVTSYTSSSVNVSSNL
Experiment: not given
Conditions: not given
`C[C@@H]1O[C@@H](O[C@@H]2C=C3CC[C@@H]4[C@H](CC[C@]5(C)[C@@H](c6ccc(=O)oc6)CC[C@]45O)[C@@]3(C)CC2)[C@H](O)[C@H](O)[C@H]1O` [PROSCILLARIDIN]: the IC50 result was “Not Active”.
As for `Oc1cccc(O)c1O` [PYROGALLOL], the IC50 entry is “Not Active”.
As for AURANOFIN, the IC50 entry is “Not Active” and the Ki result was “Not Active”.
Turning to GADOPENTETATE DIMEGLUMINE, the IC50 result was “Not Active” and the Ki entry is recorded as “Not Active”.
In the case of GENTAMICIN, the IC50 entry is “Not Active” and the Ki entry is reported as “Not Active”.
For GRAMICIDIN, the IC50 result is “Not Active” and the Ki result is on record as “Not Active”.

The target in another test is T3, Type-2 angiotensin II receptor (Homo sapiens, UniProt P50052). Note: in other assays of this panel Not Active means under 50% inhibition at 10 µM.
T3 sequence (P50052 whole entry): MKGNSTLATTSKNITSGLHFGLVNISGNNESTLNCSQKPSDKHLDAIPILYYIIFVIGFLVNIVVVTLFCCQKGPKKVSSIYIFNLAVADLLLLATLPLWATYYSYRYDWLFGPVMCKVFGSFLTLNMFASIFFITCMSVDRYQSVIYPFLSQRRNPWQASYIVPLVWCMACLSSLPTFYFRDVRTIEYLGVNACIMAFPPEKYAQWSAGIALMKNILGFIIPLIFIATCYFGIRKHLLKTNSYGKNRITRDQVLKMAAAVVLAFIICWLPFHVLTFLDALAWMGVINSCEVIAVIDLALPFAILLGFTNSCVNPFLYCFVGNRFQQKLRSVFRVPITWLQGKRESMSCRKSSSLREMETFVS
Experiment: not given
The settings on record: cho-k1. The test is classed as cell-based.
Regarding `C[C@@H]1O[C@@H](O[C@@H]2C=C3CC[C@@H]4[C@H](CC[C@]5(C)[C@@H](c6ccc(=O)oc6)CC[C@]45O)[C@@]3(C)CC2)[C@H](O)[C@H](O)[C@H]1O` [PROSCILLARIDIN], the IC50 result is on record as “Not Active”.
Take `Oc1cccc(O)c1O` [PYROGALLOL]: the IC50 result is “Not Active”.
As for AURANOFIN, the IC50 result is “Not Active” and the Ki result is recorded as “Not Active”.
For the compound GADOPENTETATE DIMEGLUMINE, the IC50 result is listed as “Not Active” and the Ki result is recorded as “Not Active”.
For the compound GENTAMICIN, the IC50 entry is listed as “Not Active” and the Ki entry is reported as “Not Active”.
Turning to GRAMICIDIN, the IC50 entry was “Not Active” and the Ki result is on record as “Not Active”.

The next test concerns the target T4, Adenosine receptor A1 (Homo sapiens, UniProt P30542).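 Note: radioligand binding assay at the adenosine A1 receptor, with DPCPX serving as the labelled ligand; in other assays of this panel Not Active means under 50% inhibition at 10 µM.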
T4 sequence (P30542 whole entry): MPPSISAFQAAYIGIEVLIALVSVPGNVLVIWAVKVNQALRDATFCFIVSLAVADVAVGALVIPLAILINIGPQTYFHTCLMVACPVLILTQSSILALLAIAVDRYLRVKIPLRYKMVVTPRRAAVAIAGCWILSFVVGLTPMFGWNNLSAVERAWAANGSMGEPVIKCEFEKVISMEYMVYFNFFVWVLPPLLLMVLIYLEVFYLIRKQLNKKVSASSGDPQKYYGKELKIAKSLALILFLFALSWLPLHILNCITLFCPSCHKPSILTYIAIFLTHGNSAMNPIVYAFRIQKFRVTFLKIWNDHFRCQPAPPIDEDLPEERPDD
Experiment: not given
In kind it is cell membranes, CHO, Membrane. The settings on record: cho.
`C[C@@H]1O[C@@H](O[C@@H]2C=C3CC[C@@H]4[C@H](CC[C@]5(C)[C@@H](c6ccc(=O)oc6)CC[C@]45O)[C@@]3(C)CC2)[C@H](O)[C@H](O)[C@H]1O` [PROSCILLARIDIN]: the IC50 result is “Not Active”.
Same read-out and setting: the result for `Oc1cccc(O)c1O` [PYROGALLOL] reads “Not Active”.
Turning to AURANOFIN, the IC50 entry is on record as “Not Active” and the Ki entry was “Not Active”.
With GADOPENTETATE DIMEGLUMINE, the IC50 result was “Not Active” and the Ki result was “Not Active”.
For the compound GENTAMICIN, the IC50 result is “Not Active” and the Ki result is reported as “Not Active”.
GRAMICIDIN: the IC50 result is on record as “Not Active” and the Ki entry is “Not Active”.
